Measured values: patent EP4205737A1, “COMPOSITION FOR PREVENTION, AMELIORATION, OR TREATMENT OF INFLAMMATORY DISEASES OR IMMUNE DISEASES COMPRISING GANCAONIN N AS ACTIVE INGREDIENT” (UNIVERSITY-INDUSTRY COOPERATION GROUP OF KYUNG HEE …, priority 2020, dated 2022)

Key:
[1] = test system: COX-2; assay: Western blotting of COX-2 protein in LPS-stimulated A549 cells; type: cell-based, human; conditions: LPS 5 µg/mL, 5 to 40 µM (FIG. 4D)
Method: (§1) RAW264.7 cells and A549 cells were dispensed into 6-well plates (1 × 10^6 cells/well) and cultured under conditions of 37°C and 5% CO2. After the culturing, the Raw 264.7 cells were treated with 1 µg/mL of lipopolysaccharide (LPS) and the A549 cells were treated with 5 µg/mL of lipopolysaccharide (LPS) and with 5 µM to 40 µM of gancaonin N, and the cells were cultured for 24 hours or 6 hours. Then, the cells were lysed using a lysis buffer. In addition, the left lung extracted from each mouse was lysed using RIPA buffer. SDS-PAGE electrophoresis was performed on the cell and tissue lysates to separate proteins by side, and 5% bovine serum albumin was used for culturing and for blocking antibodies against PGE2 (1:500), IL-1β (1:500), IL-6 (1:500), TNF-α (1:500), i-NOS (1:500), COX-2 (1:1000), P-ERK1/2 (1:1000), ERK1/2 (1:3000), P-p38 (1:1000), p38 (1:3000), NF-κB p65 (1:1000), Lamin B1 (1:1000), and β-actin (1: 5,000).
(§2) For the pro-inflammatory cytokines whose mRNA expression inhibition was confirmed as above, the expression level of the protein encoded by the mRNA was further checked. To determine the protein expression level, A549 cells were treated with LPS and gancaonin N as described in Examples 1 to 8, and the protein expression levels were checked.

[2] = test system: PGE2; assay: Western blotting of PGE2 in LPS-stimulated RAW264.7 cells; type: cell-based, murine; conditions: LPS 1 µg/mL, 5 to 40 µM, as treatment concentration increased (FIG. 2B)
Method: as §1
To investigate the anti-inflammatory effect of gancaonin N, the inventors treated Raw264.7 cells with LPS and Gancaonin N, as described in Examples 1 to 6, and evaluated the expression level of inflammation-inducing factors. Thus, the inhibitory effect of gancaonin N on inflammation-related factors was specifically confirmed.

[3] = test system: IL-6; assay: Western blotting of IL-6 protein in LPS-stimulated A549 cells; type: cell-based, human; conditions: LPS 5 µg/mL, 5 to 40 µM (FIG. 4C)
Method: as §1, §2

[4] = test system: LPS-induced acute lung injury (ALI) mouse model; assay: Bronchoalveolar lavage fluid analysis (inflammatory cell infiltration), LPS-induced acute lung injury mouse model; type: in vivo, BALB/c mice; conditions: mice, 10 mg/kg or 30 mg/kg intraperitoneally one hour before intratracheal LPS
Method: (§3) 25 6-week-old female BALB/c mice having a weight of 18g to 20 g were purchased from BioLink (DBL CO., Eumseong, Chungcheongbuk-do, Korea), and reared in the animal laboratory of KyungHee University. To establish an LPS-induced acute lung injury model, all the mice were divided into five groups each group of which consisted of 5 mice, and the five groups were referred to as control, vehicle (only LPS treatment), gancaonin N (10 mg/kg), gancaonin N (30 mg/kg), and dexamethasone (3 mg/kg). Gancaonin N was intraperitoneally injected at a dose of 10 mg/kg or 30 mg/kg, and dexamethasone was intraperitoneally injected at a dose of 3 mg/kg as a positive control group. In addition, the control and vehicle groups were intraperitoneally injected with 4% DMSO in which gancaonin N was dissolved. […]
Bronchoalveolar lavage fluid (BALF) was obtained after anesthetizing each mouse with intranasal isoflurane. […] The cells were stained with the Diff-Quik kit (Sysmex, Kobe, Japan), observed under a microscope, and sorted, and then the total cells and neutrophils were counted.
(§4) The mouse models prepared as described in Examples 1 to 3 were treated with LPS to induce acute lung injury (ALI), and then the anti-inflammatory effect of gancaonin N was specifically evaluated for the mice of five groups (control, vehicle (only LPS), gancaonin N (10 mg/kg), gancaonin N (30 mg/kg), and dexamethasone (3 mg/kg)), […]

[5] = test system: p65; assay: MAPK/NF-κB signaling pathway: p65 in LPS-stimulated A549 cells; type: cell-based, human
Method: as §1
A549 cells were dispensed into 6-well plates (1 × 10^4 cells/well) and cultured under conditions of 37°C and 5% CO2. After the culturing, the A549 cells were treated with of 5 ug/mL of lipopolysaccharide (LPS) and with 5 µM to 40 µM of gancaonin N, and the cells were then cultured for 6 hours. […] For fluorescence observation, EVOSR Cell Imaging systems (Thermo Fisher Scientific, Waltham, MA, USA) were used. […]

[6] = test system: IL-1β; assay: Western blotting of IL-1β protein in LPS-stimulated A549 cells; type: cell-based, human; conditions: LPS 5 µg/mL, 5 to 40 µM (FIG. 4B)
Method: as §1, §2

[7] = test system: LPS-induced acute lung injury (ALI) mouse model; assay: Lung wet/dry ratio measurement (pulmonary edema), LPS-induced acute lung injury mouse model; type: in vivo, BALB/c mice; conditions: mice, 10 mg/kg or 30 mg/kg intraperitoneally, LPS-induced ALI (FIG. 7)
Method: as §3
To determine the severity of pulmonary edema, the wet weight of the right upper lung was measured, the tissue was dried 60°C for 72 hours, and the dry weight was measured. Afterwards, the W/D ratio was calculated.
as §4

`COc1ccc(-c2coc3cc(O)c(CC=C(C)C)c(O)c3c2=O)c(O)c1` [gancaonin N, 5,7-dihydroxy-3-(2-hydroxy-4-methoxyphenyl)-6-(3-methylbut-2-enyl)chromen-4-one] was tested, and the “protein expression of COX-2” value [1] was “significantly inhibited”, the “expression level of protein of PGE2” value [2] was “significantly decreased” and the “protein expression of IL-6” value [3] was “significantly inhibited”. For the same molecule, the “cell count in bronchoalveolar lavage fluid (BALF)” value ([4]; sacrificed 12 hours later (FIG. 6B)) was “significantly reduced”, the “neutrophil count in bronchoalveolar lavage fluid (BALF)” value ([4]; sacrificed 12 hours later (FIG. 6C)) was “significantly reduced” and the “activity/protein expression levels of p65” value ([5]; 5µM to 40 µM 2 hours before LPS treatment (FIG. 5C)) was “significantly reduced”. The “amount of gancaonin N at which the inhibitory effect on the activity/protein expression levels of p65 was most excellent” value ([5]; LPS, tested 5µM to 40 µM) was 40 µM, the “protein expression of IL-1β” value [6] was “significantly inhibited” and the W/D ratio [7] was “significantly lowered”.
